# Measurements reported in article PMC10879502, “Linking ATP and allosteric sites to achieve superadditive binding with bivalent EGFR kinase inhibitors” (Communications Chemistry, 2024).
# What was measured:
# PIK3C2G = PIK3C2G (Homo sapiens, UniProt O75747); test: KINOMEscan; type: binding; conditions: 1 μM
# EPHA5 = EPHA5 (Homo sapiens, UniProt P54756); test: KINOMEscan; type: binding; conditions: 1 μM
# PCTK2 = PCTK2 (Homo sapiens, UniProt Q00537); test: KINOMEscan; type: binding; conditions: 1 μM
# FAK = FAK (Homo sapiens, UniProt Q05397); test: KINOMEscan; type: binding; conditions: 1 μM
# LIMK1 = molecular target: T1, LIMK1 (Homo sapiens, UniProt P53667); test: KINOMEscan; type: binding; conditions: 1 μM
# T1 construct: purchased Eurofins DiscoverX Corporation
# EPHA4 = EPHA4 (Homo sapiens, UniProt P54764); test: KINOMEscan; type: binding; conditions: 1 μM
# [1] = molecular target: RSK4(Kin.Dom.1-N-terminal) (Homo sapiens, UniProt Q9UK32); test: KINOMEscan; type: binding; conditions: 1 μM
# Sequence of RSK4(Kin.Dom.1-N-terminal) (Q9UK32 73-330 limits assumed): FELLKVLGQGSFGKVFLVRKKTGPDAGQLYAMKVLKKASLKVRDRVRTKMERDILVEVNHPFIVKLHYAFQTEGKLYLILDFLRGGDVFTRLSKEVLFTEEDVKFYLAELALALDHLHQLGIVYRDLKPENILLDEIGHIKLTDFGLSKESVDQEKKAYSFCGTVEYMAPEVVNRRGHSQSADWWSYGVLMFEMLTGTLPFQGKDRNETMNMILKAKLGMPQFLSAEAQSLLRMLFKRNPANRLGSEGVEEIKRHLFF
# PIM1 = PIM1 (Homo sapiens, UniProt P11309); test: KINOMEscan; type: binding; conditions: 1 μM
# Sequence of PIM1 (P11309 whole entry): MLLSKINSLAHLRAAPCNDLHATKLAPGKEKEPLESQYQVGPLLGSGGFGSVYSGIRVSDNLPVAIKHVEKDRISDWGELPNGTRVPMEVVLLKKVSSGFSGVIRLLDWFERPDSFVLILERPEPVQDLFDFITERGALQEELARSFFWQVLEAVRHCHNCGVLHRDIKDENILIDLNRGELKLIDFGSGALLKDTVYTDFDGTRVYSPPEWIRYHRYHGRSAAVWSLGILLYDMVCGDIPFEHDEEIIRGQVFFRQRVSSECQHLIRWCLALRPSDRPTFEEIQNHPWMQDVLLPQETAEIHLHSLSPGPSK
# [2] = molecular target: T2, JAK3(JH1domain-catalytic) (Homo sapiens, UniProt P52333); test: KINOMEscan; type: binding; conditions: 1 μM
# T2 construct: JAK3(JH1domain-catalytic); purchased Eurofins DiscoverX (KINOMEscan)
# ABL1-phosphorylated = molecular target: T3, ABL1-phosphorylated (Homo sapiens, UniProt P00519); test: KINOMEscan; type: binding; conditions: 1 μM
# T3 construct: purchased Eurofins DiscoverX Corporation
# CDK4-cyclinD3 = CDK4-cyclinD3 (Homo sapiens, UniProt P11802); test: KINOMEscan; type: binding; conditions: 1 μM
# Sequence of CDK4-cyclinD3 (P11802 whole entry): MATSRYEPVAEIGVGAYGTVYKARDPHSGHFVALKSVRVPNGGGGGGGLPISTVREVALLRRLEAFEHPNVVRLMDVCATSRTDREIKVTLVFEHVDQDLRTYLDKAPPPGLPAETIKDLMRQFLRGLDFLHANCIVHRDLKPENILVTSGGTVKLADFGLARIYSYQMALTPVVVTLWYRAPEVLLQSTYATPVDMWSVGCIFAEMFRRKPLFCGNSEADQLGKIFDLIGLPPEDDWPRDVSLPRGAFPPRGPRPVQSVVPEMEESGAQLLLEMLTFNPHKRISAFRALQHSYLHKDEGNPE
# Sequence of CDK4-cyclinD3 (P30281 whole entry partner): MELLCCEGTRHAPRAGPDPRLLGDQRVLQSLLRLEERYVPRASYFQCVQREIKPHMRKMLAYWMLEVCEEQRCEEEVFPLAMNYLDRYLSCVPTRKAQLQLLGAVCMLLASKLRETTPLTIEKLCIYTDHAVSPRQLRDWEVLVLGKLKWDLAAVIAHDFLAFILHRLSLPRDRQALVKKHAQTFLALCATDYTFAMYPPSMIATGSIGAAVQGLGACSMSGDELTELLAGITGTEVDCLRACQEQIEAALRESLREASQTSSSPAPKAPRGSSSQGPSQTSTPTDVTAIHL
# MAP4K2 = molecular target: T4, MAP4K2 (Homo sapiens, UniProt Q12851); test: KINOMEscan; type: binding; conditions: 1 μM
# T4 construct: purchased Eurofins DiscoverX Corporation
# PAK3 = PAK3 (Homo sapiens, UniProt O75914); test: KINOMEscan; type: binding; conditions: 1 μM
# MST4 = molecular target: T5, MST4 (Homo sapiens, UniProt Q9P289); test: KINOMEscan; type: binding; conditions: 1 μM
# T5 construct: purchased Eurofins DiscoverX Corporation
# T5 sequence (Q9P289 whole entry): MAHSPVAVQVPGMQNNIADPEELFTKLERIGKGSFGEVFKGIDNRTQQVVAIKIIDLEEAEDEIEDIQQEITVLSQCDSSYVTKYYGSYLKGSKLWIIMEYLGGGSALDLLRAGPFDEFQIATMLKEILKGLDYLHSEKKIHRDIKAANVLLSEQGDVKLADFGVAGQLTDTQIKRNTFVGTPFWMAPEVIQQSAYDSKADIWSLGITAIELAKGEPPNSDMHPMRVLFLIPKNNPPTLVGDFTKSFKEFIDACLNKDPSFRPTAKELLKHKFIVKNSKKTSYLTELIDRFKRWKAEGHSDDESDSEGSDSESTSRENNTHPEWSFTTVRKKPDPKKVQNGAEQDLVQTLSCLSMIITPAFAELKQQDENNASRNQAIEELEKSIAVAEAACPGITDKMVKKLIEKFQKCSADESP
# DDR1 = molecular target: T6, DDR1 (Homo sapiens, UniProt Q08345); test: KINOMEscan; type: binding; conditions: 1 μM
# T6 construct: purchased Eurofins DiscoverX Corporation
# T6 sequence (Q08345 19-913): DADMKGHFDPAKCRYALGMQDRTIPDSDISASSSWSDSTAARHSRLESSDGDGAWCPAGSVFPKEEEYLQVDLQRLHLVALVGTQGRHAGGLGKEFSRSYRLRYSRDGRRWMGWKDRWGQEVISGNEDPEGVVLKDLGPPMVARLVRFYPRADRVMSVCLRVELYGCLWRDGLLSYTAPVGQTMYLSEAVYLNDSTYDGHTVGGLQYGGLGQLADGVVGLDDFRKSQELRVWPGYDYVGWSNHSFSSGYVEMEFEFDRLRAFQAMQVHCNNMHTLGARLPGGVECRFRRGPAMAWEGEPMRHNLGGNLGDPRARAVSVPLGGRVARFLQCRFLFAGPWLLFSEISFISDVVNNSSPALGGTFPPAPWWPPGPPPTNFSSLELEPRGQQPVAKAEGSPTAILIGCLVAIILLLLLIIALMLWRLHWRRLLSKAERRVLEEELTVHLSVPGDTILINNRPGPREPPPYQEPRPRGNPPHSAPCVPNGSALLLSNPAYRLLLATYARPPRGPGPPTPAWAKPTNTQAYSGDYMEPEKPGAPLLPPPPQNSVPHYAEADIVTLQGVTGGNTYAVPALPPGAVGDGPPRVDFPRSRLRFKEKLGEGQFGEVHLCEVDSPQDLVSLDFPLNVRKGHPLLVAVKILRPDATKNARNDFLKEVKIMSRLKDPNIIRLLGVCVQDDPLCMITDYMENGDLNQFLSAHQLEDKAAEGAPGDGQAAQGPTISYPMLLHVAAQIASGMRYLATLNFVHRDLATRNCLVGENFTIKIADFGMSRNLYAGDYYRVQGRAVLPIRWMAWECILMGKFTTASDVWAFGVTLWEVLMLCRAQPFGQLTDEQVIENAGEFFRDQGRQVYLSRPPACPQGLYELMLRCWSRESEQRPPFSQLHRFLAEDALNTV
# PFCDPK1(P.falciparum) = PFCDPK1(P.falciparum) (Plasmodium falciparum, UniProt P62344); test: KINOMEscan; type: binding; conditions: 1 μM
# Sequence of PFCDPK1(P.falciparum) (P62344 whole entry): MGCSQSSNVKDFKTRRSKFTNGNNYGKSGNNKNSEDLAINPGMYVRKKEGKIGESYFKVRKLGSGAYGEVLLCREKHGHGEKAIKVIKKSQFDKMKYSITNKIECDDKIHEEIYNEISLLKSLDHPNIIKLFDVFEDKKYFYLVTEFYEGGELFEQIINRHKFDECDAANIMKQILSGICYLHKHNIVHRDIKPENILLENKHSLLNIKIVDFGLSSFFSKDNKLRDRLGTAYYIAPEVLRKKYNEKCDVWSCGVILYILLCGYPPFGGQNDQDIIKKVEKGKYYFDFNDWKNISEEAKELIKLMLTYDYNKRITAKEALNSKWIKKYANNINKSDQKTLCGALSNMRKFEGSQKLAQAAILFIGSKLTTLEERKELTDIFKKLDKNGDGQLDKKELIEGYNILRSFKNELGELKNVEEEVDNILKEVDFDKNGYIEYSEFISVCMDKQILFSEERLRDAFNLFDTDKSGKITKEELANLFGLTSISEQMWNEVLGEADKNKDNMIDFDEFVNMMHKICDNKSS
# LATS1 = molecular target: T7, LATS1 (Homo sapiens, UniProt O95835); test: KINOMEscan; type: binding; conditions: 1 μM
# T7 construct: purchased Eurofins DiscoverX Corporation
# BMPR1B = molecular target: T8, BMPR1B (Homo sapiens, UniProt O00238); test: KINOMEscan; type: binding; conditions: 1 μM
# T8 construct: purchased Eurofins DiscoverX Corporation (KINOMEscan)
# MKNK2 = molecular target: T9, MKNK2 (Homo sapiens, UniProt Q9HBH9); test: KINOMEscan; type: binding; conditions: 1 μM
# T9 construct: purchased Eurofins DiscoverX Corporation
# TIE2 = molecular target: T10, TIE2 (Homo sapiens, UniProt Q02763); test: KINOMEscan; type: binding; conditions: 1 μM
# T10 construct: purchased Eurofins DiscoverX Corporation
# T10 sequence (Q02763 23-1124): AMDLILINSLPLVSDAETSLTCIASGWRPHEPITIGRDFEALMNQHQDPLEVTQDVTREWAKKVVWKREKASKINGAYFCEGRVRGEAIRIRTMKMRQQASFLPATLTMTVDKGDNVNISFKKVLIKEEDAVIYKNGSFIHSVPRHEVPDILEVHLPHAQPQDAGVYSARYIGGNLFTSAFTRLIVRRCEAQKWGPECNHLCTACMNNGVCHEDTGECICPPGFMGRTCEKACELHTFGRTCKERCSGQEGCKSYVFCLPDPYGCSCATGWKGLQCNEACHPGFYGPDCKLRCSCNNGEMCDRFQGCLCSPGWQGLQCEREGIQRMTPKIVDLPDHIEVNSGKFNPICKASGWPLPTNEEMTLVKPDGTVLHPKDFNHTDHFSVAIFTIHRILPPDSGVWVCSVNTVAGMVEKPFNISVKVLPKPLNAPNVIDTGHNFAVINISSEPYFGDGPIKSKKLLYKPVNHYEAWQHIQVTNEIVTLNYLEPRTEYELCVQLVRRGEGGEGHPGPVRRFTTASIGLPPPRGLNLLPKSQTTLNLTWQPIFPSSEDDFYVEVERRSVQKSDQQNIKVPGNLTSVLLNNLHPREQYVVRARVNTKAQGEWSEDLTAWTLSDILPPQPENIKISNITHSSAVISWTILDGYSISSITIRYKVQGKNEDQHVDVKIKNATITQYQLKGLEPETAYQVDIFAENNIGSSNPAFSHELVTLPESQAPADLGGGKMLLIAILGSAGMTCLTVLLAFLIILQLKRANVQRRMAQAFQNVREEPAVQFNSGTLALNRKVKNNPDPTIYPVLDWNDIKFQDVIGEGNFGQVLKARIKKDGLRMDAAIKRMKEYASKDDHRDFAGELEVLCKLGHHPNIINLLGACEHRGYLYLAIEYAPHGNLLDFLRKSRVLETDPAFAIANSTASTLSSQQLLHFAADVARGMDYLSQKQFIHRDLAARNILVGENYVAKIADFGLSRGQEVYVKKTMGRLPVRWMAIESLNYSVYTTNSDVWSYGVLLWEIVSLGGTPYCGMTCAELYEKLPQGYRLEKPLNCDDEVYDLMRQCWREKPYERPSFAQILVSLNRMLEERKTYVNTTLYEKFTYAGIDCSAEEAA
# PKNB(M.tuberculosis) = PKNB(M.tuberculosis) (Mycobacterium tuberculosis, UniProt P9WI81); test: KINOMEscan; type: binding; conditions: 1 μM
# [3] = Metabolic stability in human liver microsomes; type: in vitro ADME; conditions: up to 120 min
# Protocol: Pooled liver microsomes from humans (male) were purchased from Sekisui XenoTech, LLC, Kansas City, KS, USA. Metabolic stability assays were performed in the presence of an NADPH-regenerating system consisting of 5 mM glucose-6-phosphate, 5 U/mL glucose-6-phosphate dehydrogenase, and 1 mM NADP^+. Liver microsomes (20 mg/mL), NADPH-regenerating system, and 4 mM MgCl2·6 H2O in 0.1 M TRIS-HCl-buffer (pH 7.4) were preincubated for 5 min at 37 °C and 750 rpm on a shaker. The reaction was started by adding the preheated compound at 10 mM resulting in a final concentration of 0.1 mM. The reaction was quenched at selected time points (0, 10, 20, 30, 60, and 120 min) by pipetting 100 μL of internal standard (ketoprofen) at a concentration of 150 μM in acetonitrile. The samples were vortexed for 30 s and centrifuged (21910 relative centrifugal force, 4 °C, 20 min). The supernatant was used directly for LC-MS analysis. All compound incubations were conducted at least in triplicates. Additionally, a negative control containing BSA (20 mg/mL) instead of liver microsomes and a positive control using verapamil instead of compound were performed. A limit of 1% organic solvent during incubation was not exceeded. […]
# ANKK1 = ANKK1 (Homo sapiens, UniProt Q8NFD2); test: KINOMEscan; type: binding; conditions: 1 μM
# GRK3 = molecular target: T11, GRK3 (Homo sapiens, UniProt P35626); test: KINOMEscan; type: binding; conditions: 1 μM
# T11 construct: purchased Eurofins DiscoverX Corporation
# T11 sequence (P35626 whole entry): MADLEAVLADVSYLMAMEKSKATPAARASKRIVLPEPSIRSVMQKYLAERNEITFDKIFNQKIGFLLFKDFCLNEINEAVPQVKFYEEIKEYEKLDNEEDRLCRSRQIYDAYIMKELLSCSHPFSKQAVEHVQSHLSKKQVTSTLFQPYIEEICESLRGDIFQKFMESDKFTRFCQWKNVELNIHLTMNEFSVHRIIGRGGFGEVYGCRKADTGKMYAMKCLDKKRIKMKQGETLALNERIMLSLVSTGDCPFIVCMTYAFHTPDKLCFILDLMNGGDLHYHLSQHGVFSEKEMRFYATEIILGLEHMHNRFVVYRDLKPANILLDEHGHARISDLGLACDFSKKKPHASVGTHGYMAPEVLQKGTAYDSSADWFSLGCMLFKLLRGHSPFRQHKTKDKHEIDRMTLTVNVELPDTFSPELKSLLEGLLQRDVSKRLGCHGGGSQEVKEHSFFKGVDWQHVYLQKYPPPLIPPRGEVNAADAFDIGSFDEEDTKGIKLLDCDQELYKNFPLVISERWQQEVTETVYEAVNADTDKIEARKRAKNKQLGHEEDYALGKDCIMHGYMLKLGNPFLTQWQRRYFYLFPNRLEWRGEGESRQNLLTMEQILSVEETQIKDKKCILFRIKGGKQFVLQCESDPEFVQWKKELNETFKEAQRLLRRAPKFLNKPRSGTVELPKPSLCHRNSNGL
# PAK6 = PAK6 (Homo sapiens, UniProt Q9NQU5); test: KINOMEscan; type: binding; conditions: 1 μM
# DCAMKL2 = molecular target: T12, DCAMKL2 (Homo sapiens, UniProt Q8N568); test: KINOMEscan; type: binding; conditions: 1 μM
# T12 construct: purchased Eurofins DiscoverX Corporation
# TNIK = molecular target: T13, TNIK (Homo sapiens, UniProt Q9UKE5); test: KINOMEscan; type: binding; conditions: 1 μM
# T13 construct: purchased Eurofins DiscoverX Corporation
# PAK7 = PAK7 (Homo sapiens, UniProt Q9P286); test: KINOMEscan; type: binding; conditions: 1 μM
structure (smiles),measurement,setting,value
C=CC(=O)Nc1ccc(OC)c(Nc2cc(-c3[nH]c(CC)nc3-c3cccc(NC(=O)c4cccc5c4NC(=O)c4ccccc4N5)c3)ccn2)c1 [Compound 4],POC,PIK3C2G,50% of control
same,POC,EPHA5,100% of control
same,POC,PCTK2,100% of control
same,POC,FAK,99% of control
same,POC,LIMK1,79% of control
same,POC,EPHA4,95% of control
same,POC,[1],100% of control
same,POC,PIM1,94% of control
same,POC,[2],100% of control
same,POC,ABL1-phosphorylated,80% of control
same,POC,CDK4-cyclinD3,49% of control
same,POC,MAP4K2,36% of control
same,POC,PAK3,70% of control
same,POC,MST4,94% of control
same,POC,DDR1,90% of control
same,POC,PFCDPK1(P.falciparum),87% of control
same,POC,LATS1,100% of control
same,POC,BMPR1B,100% of control
same,POC,MKNK2,100% of control
same,POC,TIE2,71% of control
same,POC,PKNB(M.tuberculosis),97% of control
same,metabolic stability in liver microsomes,[3],metabolically stable
same,POC,ANKK1,87% of control
same,POC,GRK3,100% of control
same,POC,PAK6,93% of control
same,POC,DCAMKL2,100% of control
same,POC,TNIK,33% of control
same,POC,PAK7,77% of control
